Data on three compounds can be found in patent US10774081B2, “Indolo substituted piperidine compound as estrogen receptor down-regulator” (LUOXIN PHARMACEUTICAL (SHANGHAI) CO., LTD., priority 2016, dated 2020).

Structures are written as SMILES.

The nature of data set [1]: Tissue distribution evaluation of the drug (plasma and brain). The note with it: mouse, mice, dosage 10 mpk, 21th day after administration, tissue collected near Tmax, read-out: Ratio of drug concentration Brain tissue/plasma. Format: in vivo. The method, then:
Experiment 2: Tissue Distribution Evaluation of the Drug
On the 21th day after administration, select randomly three mice from the drug-administrated group, and collect their plasma samples at different timing, the mice were euthanized near Tmax, and the tumor, brain and breast samples were collected.
The procedure of collecting the plasma and tissue samples are as follows:
Plasma: Blood (60 μl) was collected using a 1.5 ml EDTA-K2 anticoagulation tube, the plasma was obtained after immediately centrifugation at 7000 rpm, at 4° C. for 10 mins, then the plasma simple was stored at −80° C. for drug concentration determination.
Tissue: Brain was collected using a 5 ml cryotube and immediately quick froze in liquid nitrogen. After sampling, tissues were stored at −80° C. for drug concentration determination used for comparing the distribution.

The next data set relates to MCF-7 cells. The experiment in a line: MCF-7 Cell Proliferation Inhibition Assay. Type of data set: cell-based. The conditions noted are these: Homo sapiens, MCF7, 144 h, 6 days incubation, CellTiter-Glo, read-out: MCF-7 cell proliferation suppression. The method, then: (1) MCF-7 Cell Proliferation Inhibition Assay
Substrate RPMI 1640, fetal calf serum, reagent Promega CellTiter-Glo. MCF-7 cell lines were purchased from the European Cell Culture Collection (ECACC). Envision multi-lable analyzer (PerkinElmer).
MCF-7 cells were seeded in black 384-well plates, each of the well has 600 cells in […] of cell suspension. The cell plates were placed in a carbon dioxide incubator overnight.
The compound to be tested was diluted by 5 times for 10 concentrations with Epmotion, ie., dilution from 0.25 mmol to 1.28 nmol, and replicated. 198 μl Medium was added to the middle plate, and 2 μl of each well of the gradient diluted compound was transferred to the correspondent position on the middle plate, and then 20 μl of each well was transferred to the cell plate after mixing. Then the cell plate was incubated in a carbon dioxide incubator for 6 days.
25 μl Promega CellTiter-Glo reagent was added into each well of the cell plate, the cell plate was then incubated for 10 mins at room temperature to stabilize the luminescence signal. PerkinElmer Envision multi-label analyser was used for readings.
The original data is converted to the inhibition rate using the equation (Max−Ratio)/(Max−Min)*100%, the value of IC50 also can be obtained by the curve fitting with four parameters. (by 205 model in XLFIT5,iDBS)
On the technique in general: Cellular ATP, detected with luciferase, serves as a proxy for viable cell number.

The next data set addresses T1, estrogen receptor (Homo sapiens, UniProt P03372).
T1 construct: endogenous in cells; host or cells: MCF-7 (ECACC)
T1 sequence (P03372 1-595): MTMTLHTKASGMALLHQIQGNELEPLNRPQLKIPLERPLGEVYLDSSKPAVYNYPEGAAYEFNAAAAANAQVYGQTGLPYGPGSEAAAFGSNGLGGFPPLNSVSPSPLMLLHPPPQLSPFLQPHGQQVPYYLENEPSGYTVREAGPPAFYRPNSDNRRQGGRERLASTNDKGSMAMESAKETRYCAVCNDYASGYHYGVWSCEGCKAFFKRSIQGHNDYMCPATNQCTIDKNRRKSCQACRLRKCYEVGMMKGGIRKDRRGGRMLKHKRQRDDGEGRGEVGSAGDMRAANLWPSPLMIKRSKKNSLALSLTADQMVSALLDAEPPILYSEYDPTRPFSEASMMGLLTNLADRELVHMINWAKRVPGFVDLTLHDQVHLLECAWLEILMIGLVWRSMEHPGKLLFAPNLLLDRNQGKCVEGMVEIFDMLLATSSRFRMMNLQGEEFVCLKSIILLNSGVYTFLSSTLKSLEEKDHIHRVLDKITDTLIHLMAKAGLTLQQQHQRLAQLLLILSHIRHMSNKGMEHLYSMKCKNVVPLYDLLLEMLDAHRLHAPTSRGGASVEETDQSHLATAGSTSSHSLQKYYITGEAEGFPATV
The experiment in a line: ER Degradation in MCF-7 Cell. Format: cell-based. The note with it: MCF-7 cells, 20 hours incubation, ER antibody infrared fluorescence; read-out: MCF-7 ER degradation IC50 intracellular.

The conditions of data set [2]: in vivo; cited from earlier work.
Another data set deals with breast cancer. The conditions noted are these: intramuscularly administrated; cited from earlier work.

Experimental for estrogen receptor: Substrate RPMI 1640, fetal calf serum, PBS, 16% paraformaldehyde, Triton, confining liquid, estrogen receptor antibody, near0infrared goat anti-rabbit secondary antibody, DRAQ5 dye. The MCF-7 cell lines were purchased from the European Cell Culture Collection (ECACC). Odyssey infrared fluorescence scanning imaging system.
The MCF-7 cell was seeded in the black 384-well plate, each of the well has 3200 cells in 30 ml cell suspension. The cell plate were incubated in a carbon dioxide incubator for 4 days.
198 μl Medium was added into the middle plate and 2 μl each well of the gradient diluted compound was transferred to the correspond position on the middle plate, then the compound was transferred 20 μl per well after mixing to the cell plate. The cell plate was then incubated in a carbon dioxide incubator for 20 hours.
50 μl 8% Paraformaldehyde was added into each well of the cell plate, after incubation at room temperature for 30 min, the plate was washed by PBS twice, pat dried and 50 ul PBS containing 0.1% Triton was added, the plate was incubated at room temperature for 15 mins, then washed with PBS for 5 times, pat dried and 50 ul confining liquid was added and incubated at room temperature for 1 hour, pat dried and 50 ul confining liquid containing 0.1% estrogen receptor antibody was added and then left at 4° C. overnight. […]

Turning to `CC1Cc2c([nH]c3ccccc23)C(c2c(F)cc(OCCN3CC(CC#N)C3)cc2F)N1CC(F)(F)F` (stereo not shown) [(I)], in data set [1], the Kp was 13.1. Besides, the IC50 in the data set on MCF-7 cells turned out to be 1.17 nM. Moreover, at estrogen receptor, the DC50 came to 1.13 nM.

Take `C[C@@H]1Cc2c([nH]c3ccccc23)[C@@H](c2c(F)cc(OCCN3CC(CF)C3)cc2F)N1CC(C)(C)F` [(II)]: the Kp in data set [1] was found to be 5.8.

`C[C@]12CC[C@@H]3c4ccc(O)cc4C[C@@H](CCCCCCCCC[S+]([O-])CCCC(F)(F)C(F)(F)F)[C@H]3[C@@H]1CC[C@@H]2O` (stereo partly shown) [Fulvestrant]: in data set [2], the oral bioavailability result is reported as “zero”. For the same compound, in the data set with MCF-7 cells, the IC50 amounted to 1.77 nM. Further, the “breast cancer patients showing clinical response” value in the data set with breast cancer is 50%.
